Assay results: patent US11220483B2, “Tetrahydro-benzo[d]azepine derivatives as GPR120 modulators” (CALDAN THERAPEUTICS LIMITED, priority 2018, dated 2022)

Target: T1, human GPR120 (Homo sapiens, UniProt Q5NUL3)
T1 construct: expressed in transfected cells; host or cells: HEK293T, transient transfection with PEI
T1 sequence (Q5NUL3 1-361): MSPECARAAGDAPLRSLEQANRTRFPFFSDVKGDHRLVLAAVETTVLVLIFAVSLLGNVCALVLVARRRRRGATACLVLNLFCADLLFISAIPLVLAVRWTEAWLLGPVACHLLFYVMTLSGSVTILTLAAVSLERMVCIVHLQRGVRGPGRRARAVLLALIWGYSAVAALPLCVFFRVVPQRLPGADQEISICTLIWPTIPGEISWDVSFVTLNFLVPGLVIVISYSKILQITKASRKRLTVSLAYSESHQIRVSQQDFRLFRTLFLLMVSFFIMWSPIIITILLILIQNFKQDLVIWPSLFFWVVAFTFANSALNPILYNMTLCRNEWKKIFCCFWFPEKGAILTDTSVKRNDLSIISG
Test: Human GPR120-β Arrestin 2 BRET agonist assay
Assay type: cell-based
Details: HEK293T cells transiently co-expressing hGPR120-eYFP and β-arrestin 2-RLuc; BRET normalised to DMSO (0%) and TUG-891 (100%); read-out: hGPR120 pEC50 (converted)
Experimental: pEC50 data was obtained by the following procedure:
Human GPR120-β Arrestin 2 Bio-Luminescence Resonance Energy Transfer (BRET) Agonist Assay Procedure
HEK293T cells were cultured in growth media composed of DMEM L-glutamine media supplemented with 10% (v:v) fetal bovine serum (FBS) and 1% (v:v) 10,000 units penicillin/10 mgml^−1 streptomycin at 37° C., 5% CO2. HEK293T cells transiently co-expressing human GPR120 […] and b-arrestin 2 were generated by transfection with plasmids encoding a construct of hGPR120 […] fused at its C terminal with enhanced yellow fluorescent protein (eYFP), and another encoding β-arrestin 2 fused to Renilla luciferase (RLuc), using Polyethylenimine (PEI) as the transfection reagent.
Transfected cells were cryopreserved in batches for consistency between replicate assays. Twenty-four hours post transfection, cells were harvested with non-enzymatic cell dissociation buffer and re-suspended in DMEM medium supplemented with 10% DMSO and 10% FBS before being transferred first to −80° C. overnight and then to liquid nitrogen for long-term storage. On the day prior to the assay, cells were thawed at 37° C. and re-suspended in growth media. A 96 well white opaque bottom microtitre plate was then seeded with 40,000 cells in a volume of 100 μl growth media per well and seeded plates were then incubated overnight at 37° C., 5% CO2. On the day of the BRET experiment, cells were washed twice with BRET assay buffer (Hanks balanced salt solution (HBSS) supplemented with 10 mM HEPES (pH 7.4)), then 80 μl per well of BRET assay buffer was added before the plate was incubated for 30 minutes at 37° C., 5% CO2. Then, Renilla luciferase substrate coelenterazine h (5 μM) was added to the cells and incubated at 37° C. for 10 minutes before the addition of GPR120 agonist (TUG-891) or test compound for a further 5 minutes at 37° C.
Bio-luminescence at λ 535 nm and λ 475 nm was then measured with a Pherastar FsX instrument, and the λ 535/λ 475 ratio of bio-luminescence was then used to calculate a BRET value. hGPR120 agonist potency values (pEC50) were calculated by normalising the BRET values to the DMSO vehicle (0% control) and TUG-891 (100% control) and then fitting the normalised data to a 3-parameter concentration-response curve.

COc1ccc(Cl)cc1N1CCc2cc(CCC(=O)O)ccc2C1 [Compound 29, 3-(2-(5-chloro-2-methoxyphenyl)-1,2,3,4-tetrahydroisoquinolin-6-yl)propanoic acid] showed an EC50 of 1000 nM.
Work on Cc1cc(C)cc(N2CCc3ccc(CCC(=O)O)cc3C2)c1 [Compound 30, 3-(2-(3,5-dimethylphenyl)-1,2,3,4-tetrahydroisoquinolin-7-yl)propanoic Acid] yielded an EC50 of 1580 nM.
COc1cc(Cl)cc(N2CCc3ccc(CCC(=O)O)cc3C2)c1 [Compound 31, 3-(2-(3-chloro-5-methoxyphenyl)-1,2,3,4-tetrahydroisoquinolin-7-yl)propanoic acid] showed an EC50 of 2510 nM.
O=C(O)CCc1ccc2c(c1)CN(c1cc(OC(F)(F)F)ccc1F)CC2 [Compound 33] was tested, and the EC50 was 1260 nM.
For O=C(O)C1CC1c1ccc2c(c1)CCN(c1cc(OC(F)(F)F)ccc1F)C2 (stereo not drawn) [Compound 35, 2-(2-(2-fluoro-5-(trifluoromethoxy)phenyl)-1,2,3,4-tetrahydroisoquinolin-6-yl)cyclopropane-1-carboxylic acid], the EC50 was 100 nM.
With O=C(O)C1CC1c1ccc2c(c1)CCN(c1cc(OC3CCC3)cc(F)c1F)C2 (stereo not drawn) [Compound 36, 2-(2-(5-cyclobutoxy-2,3-difluorophenyl)-1,2,3,4-tetrahydroisoquinolin-6-yl)cyclopropane-1-carboxylic acid] the EC50 was 100 nM.
O=C(O)C1CC1c1ccc2c(c1)CCN(c1nc(OC3CCC3)ccc1F)C2 (stereo not drawn) [Compound 37, 2-(2-(6-cyclobutoxy-3-fluoropyridin-2-yl)-1,2,3,4-tetrahydroisoquinolin-6-yl)cyclopropane-1-carboxylic acid] was tested, and the EC50 was 39.8 nM.
Compound O=C(O)C1CC1c1ccc2c(c1)CCN(c1cccc(Oc3ccccc3)c1)C2 (stereo not drawn) [Compound 38, 2-(2-(3-Phenoxyphenyl)-1,2,3,4-tetrahydroisoquinolin-6-yl)cyclopropanecarboxylic Acid] has an EC50 of 63.1 nM.
O=C(O)CCc1cc2c(cc1F)CN(c1cc(OC3CCC3)ccc1F)CC2 [Compound 39, 3-(2-(5-cyclobutoxy-2-fluorophenyl)-7-fluoro-1,2,3,4-tetrahydroisoquinolin-6-yl)propanoic Acid] was tested, and the EC50 was 63.1 nM.
With O=C(O)CCc1cc(F)c2c(c1)CCN(c1cc(OC(F)(F)F)ccc1F)C2 [Compound 40, 3-(8-fluoro-2-(2-fluoro-5-(trfluoromethoxy)phenyl)-1,2,3,4-tetrahydroisoquinolin-6-yl)propanoic acid] the EC50 was 31.6 nM.
O=C(O)CCc1cc(F)c2c(c1)CCN(c1cccc(Oc3ccccc3)c1)C2 [Compound 41, 3-(8-fluoro-2-(3-phenoxyphenyl)-1,2,3,4-tetrahydroisoquinolin-6-yl)propanoic acid] was tested, and the EC50 was 31.6 nM.
O=C(O)CCc1cc2c(cc1F)CN(c1cc(F)cc(OC3CCC3)c1)CC2 [Compound 42, 3-(2-(3-Cyclobutoxy-5-fluorophenyl)-7-fluoro-1,2,3,4-tetrahydroisoquinolin-6-yl)propanoic Acid] was tested, and the EC50 was 316 nM.
O=C(O)CCc1ccc2c(c1)CCN(c1cc(Cl)cc(OC3CCC3)c1)C2 [Compound 43, 3-(2-(3-chloro-5-cyclobutoxyphenyl)-1,2,3,4-tetrahydroisoquinolin-6-yl)propanoic acid] gave an EC50 of 20 nM.
In the case of O=C(O)CCc1ccc2c(c1)CCN(c1nc(OC3CCC3)c(F)cc1F)C2 [Compound 44, 3-(2-(6-Cyclobutoxy-3,5-difluoropyridin-2-yl)-1,2,3,4-tetrahydroisoquinolin-6-yl)propanoic Acid], the EC50 is reported as 25.1 nM.
For O=C(O)CCc1ccc2c(c1)CCN(c1cc(OC(F)(F)F)ccc1F)CC2 [Compound 45, 3-(3-(2-fluoro-5-(trifluoromethoxy)phenyl)-2,3,4,5-tetrahydro-1H-benzo[d]azepin-7-yl)propanoic Acid], the EC50 was 25.1 nM.
O=C(O)CCc1ccc2c(c1)CCN(c1cc(OC3CCC3)ccc1F)CC2 [Compound 46, 3-(3-(5-cyclobutoxy-2-fluorophenyl)-2,3,4,5-tetrahydro-1H-benzo[d]azepin-7-yl)propanoic acid] gave an EC50 of 79.4 nM.
Compound O=C(O)CCc1ccc2c(c1)CCN(c1cc(OC3CC3)ccc1F)CC2 [Compound 47, 3-(3-(5-cyclopropoxy-2-fluorophenyl)-2,3,4,5-tetrahydro-1H-benzo[d]azepin-7-yl)propanoic acid] has an EC50 of 158 nM.
Compound CC(C)Oc1ccc(F)c(N2CCc3ccc(CCC(=O)O)cc3CC2)c1 [Compound 48, 3-(3-(2-fluoro-5-isopropoxyphenyl)-2,3,4,5-tetrahydro-1H-benzo[d]azepin-7-yl)propanoic acid] has an EC50 of 200 nM.
With CC(C)Oc1cc(F)cc(N2CCc3ccc(CCC(=O)O)cc3CC2)c1 [Compound 49, 3-(3-(3-fluoro-5-isopropoxyphenyl)-2,3,4,5-tetrahydro-1H-benzo[d]azepin-7-yl)propanoic acid] the EC50 was 398 nM.
Compound O=C(O)CCc1ccc2c(c1)CCN(c1cc(Oc3ccccc3)ccc1F)CC2 [Compound 50, 3-(3-(2-fluoro-5-phenoxyphenyl)-2,3,4,5-tetrahydro-1H-benzo[d]azepin-7-yl)propanoic acid] has an EC50 of 25.1 nM.
With C[C@H](Cc1ccc2c(c1)CCN(c1cc(OC(F)(F)F)ccc1F)CC2)C(=O)O [Compound 51, (R)-3-(3-(2-fluoro-5-(trifluoromethoxy)phenyl)-2,3,4,5-tetrahydro-1H-benzo[d]azepin-7-yl)-2-methylpropanoic Acid] the EC50 was 501 nM.
In the case of O=C(O)C1CC1c1ccc2c(c1)CCN(c1cc(OC(F)(F)F)ccc1F)CC2 (stereo not drawn) [Compound 52, 2-(3-(2-fluoro-5-(trifluoromethoxy)phenyl)-2,3,4,5-tetrahydro-1H-benzo[d]azepin-7-yl)cyclopropanecarboxylic Acid], the EC50 is reported as 126 nM.
With O=C(O)C1CC1c1ccc2c(c1)CCN(c1cc(OC3CCC3)ccc1F)CC2 (stereo not drawn) [Compound 53] the EC50 was 100 nM.
O=C(O)CCc1ccc2c(c1)CCCN(c1cc(OC(F)(F)F)ccc1F)C2 [Compound 54, 3-(2-(2-Fluoro-5-(trifluoromethoxy)phenyl)-2,3,4,5-tetrahydro-1H-benzo[c]azepin-7-yl)propanoic Acid] was tested, and the EC50 was 200 nM.
